Assay results reported in a melting point compilation (Tetko et al.; mined from patent text by program, amines drawn as free bases though some values may be those of a salt).

Row | Compound | melting point [°C]
1 | N#Cc1cnc2sc(-c3ccc(C=O)cc3)cc2c1Nc1cccc2[nH]ccc12 | > 245
2 | CCCc1nc(-n2cccc2C(=O)C(F)(F)F)c(C(=O)OC)[nH]1 | 158 to 159
3 | COC(=O)C1(NC(=O)Cc2cc(C)ccc2C)CCN(OC)CC1 | 91 to 93
4 | CSC(=O)C(=O)c1cc(NC=O)ccn1 | 145 to 148
5 | COc1ccc(C(=O)Nc2cc(C)cc(C)c2)cc1N | 155 to 162
6 | Fc1cccc(F)c1C1=NC(c2ccc(-c3ccc(OCc4ccc(C(F)(F)F)cc4)cc3)cc2)CO1 (stereo unspecified) | 166
7 | CON=C(C)c1ccc(NS(C)(=O)=O)c(Sc2ccc(F)cc2F)c1 | 110 to 111
8 | CCCc1cc2c(c3c1[nH]c1ccc(OC)cc13)C(=O)N(CCN(C)C)C2=O | 207 to 208
9 | O=C1Nc2cc(Cl)ccc2Sc2cscc21 | 267 to 269
10 | c1ccc2c(c1)nc1n2CCCSC1 | 155 to 157
11 | CC1CCCC(Cl)(Cl)C(=O)N1 (stereo unspecified) | 132 to 134
12 | C=CCNc1c(NC(CC)CC)cc(C)nc1Oc1c(C)cc(C)cc1C | 86 to 88
13 | CCCCCCCCCCCCN(CCCCCCCCCCCC)c1ccccc1C1=c2ccc(=C3C(=O)c4ccccc4C3=O)cc2OC1=O | 155
14 | COc1ccc(C2(C#N)CCC(=O)CC2)c2c1OCCO2 | 157 to 161
15 | Cc1nc(CC2CCc3c(C)c4ccccc4n3C2=O)c(C)[nH]1 (stereo unspecified) | 219 to 221
16 | OCCc1nccn1CCCc1ccc(OCc2coc(/C=C/c3ccc(F)cc3F)n2)cc1 | 94 to 96
17 | COC(=O)C(Cc1cc([N+](=O)[O-])ccc1Cl)C(=O)OC | 72 to 74
18 | Cc1nc(COc2ccc3nc(N)c4nc5n(c4c3c2)C(C)COC5)cs1 (stereo unspecified) | 105 to 107
19 | COC(=O)c1ccc(OCCNC(=O)C2Cc3ccccc3N2S(=O)(=O)c2ccc(-c3ccc(F)cc3)cc2)cc1C(F)(F)F (stereo unspecified) | 62 to 70
20 | Cn1cc(C(N)=O)c(=O)c2ccc(C(F)(F)F)cc21 | 288 to 292
21 | CC(O)c1cc2c(s1)C(=O)c1sccc1C2=O (stereo unspecified) | 170 to 172
22 | COc1cc2c(cc1OC)CC(NC(=O)N(C)O)CC2 (stereo unspecified) | 150 to 151

Row | Compound | melting point [°C]
23 | CCc1nc2c(N)nc3ccccc3c2n1CCOCCS(C)(=O)=O | 160 to 163
24 | O=C(O)c1cn(O)c2ccc3[nH]c(=O)sc3c2c1=O | > 300
25 | Cc1nsc2nc3ccccc3n12 | 192 to 193
26 | Cc1nn(C)c2c1N=CN1CC(C)N=C21 (stereo unspecified) | 115 to 117
27 | COc1cc(OC)cc(N2Cc3cnc(S(C)=O)nc3NC2=O)c1 (stereo unspecified) | 220 to 222
28 | CCn1cc(C(=O)O)c(=O)c2cc(F)c(N3CCN(Cc4ccc(N)cc4)CC3)c(F)c21 | 220 to 221
29 | CCOC(=O)/C=C/c1ccc(C=Cc2nc(-c3ccco3)oc2C)cc1 | 123 to 124
30 | CS(=O)(=O)c1ccc(C(=O)N[C@H]2CC[C@H](CCN3CCC(c4cccc5c4CCO5)CC3)CC2)cc1 | 236
31 | CN(C)c1ccc(NC(=O)N(CC2CCC(CN(C(=O)Nc3ccc(N(C)C)cc3)C3C4CC5CC(C4)CC3C5)CC2)C2C3CC4CC(C3)CC2C4)cc1 (stereo unspecified) | 182 to 185
32 | CCNS(=O)(=O)c1ccc(N)c(C(=O)N2CCN(C)CC2)c1 | 175 to 177
33 | Cc1nc2c(N)nc3ccccc3c2n1CCOCCN1CCCS1(=O)=O | 186 to 187
34 | CCCC(=O)Nc1ncc(C(C)C)s1 | 95 to 97
35 | COC[C@H]1CCCN1S(=O)(=O)c1ccc2c(c1)C(=O)C(=O)N2 | 161 to 164
36 | CC(C)C(S)C(=O)NC1(C(=O)NC(Cc2ccc(-c3ccoc3)nc2)C(=O)O)CCCC1 (stereo unspecified) | 52 to 55
37 | Clc1ncnc2c1N(C1CC=CC1)CN2 | 124 to 126
38 | CCOC(=O)c1c(SC)n(-c2ccc(F)cc2)c2cc(F)c(F)cc2c1=O | 167
39 | CCCCCCCCCCC(=O)NCCCCCCCCCCCC(=O)O | 102 to 104
40 | O=C1C(=O)c2ccccc2C2=C1SCC1(CCN(CC3CCCO3)CC1)O2 (stereo unspecified) | 155 to 159
41 | Cc1nc(N2CCN(Cc3ccc(F)cc3)C2=O)sc1-c1cc[nH]n1 | 239 to 242
42 | CCN1C(=O)C2CCCN2Cc2ccccc21 (stereo unspecified) | 138 to 140
43 | NS(=O)(=O)c1cc2ncc(O)cc2s1 | 248 to 250
44 | COc1ccc2nc(C(=O)Nc3nnn(Cc4ccc(Cl)c(Cl)c4)c3C)sc2c1 | 176

Second part, the compound after the results:

Row | melting point [°C] | Compound
45 | 140 | COc1ccc(CN(C)CCCSc2ccc(NC(=O)c3cccc4c(=O)c5ccccc5[nH]c34)cc2)cc1OC
46 | 146 to 147 | CC(C)c1nc(CCOC(=O)N[C@H](C(=O)N[C@@H](Cc2ccccc2)C[C@H](O)[C@H](Cc2ccccc2)NC(=O)OCc2cncs2)C(C)C)cs1
47 | 98 | Clc1ccccc1NC(c1ccccc1)c1ccccc1
48 | 196 to 203 | CC(=O)NC(C)C1=NN(Cc2ccccc2)C(C)NC1=O (stereo unspecified)
49 | 40 to 52 | CC(=O)C(C(C)=O)c1ccccc1
50 | 186 to 187 | CC(C(=O)O)c1ccc2cc(OCc3ccc4ccccc4n3)ccc2c1 (stereo unspecified)
51 | 196 to 197 | Cc1c2cccc(-c3cccc(C(=O)NCCC#N)c3)c2nn1Cc1cccc(C(F)(F)F)c1
52 | 119 to 120 | CC(=O)N(C)c1ccc(OCc2nc3ccccc3s2)cc1
53 | 188 to 193 | Cc1cccc(COc2cccc(OCc3ccc4ccc(Cl)cc4n3)c2)c1C(=O)O
54 | 128 to 134 | COCCN(C)Cc1ccnc2c(NC(=O)c3c(Cl)cccc3Cl)cccc12
55 | 130 to 132 | COc1ccc2c(Cc3c(Cl)cncc3Cl)nncc2c1C#CCCCc1ccccc1
56 | 86 to 88 | O=C(Nc1cccc(F)c1)NC1CCN(S(=O)(=O)c2cccc(C(F)(F)F)c2)CC1
57 | 131 to 132 | COc1ccc(S(=O)(=O)Nc2ccccc2C=Cc2cccnc2)cc1
58 | 100 to 110 | [N-]=[N+]=NCCOc1ccc(C(=C(c2ccc(F)cc2)C(F)(F)F)c2ccccc2)cc1
59 | 131 to 132 | CC(=O)c1cccc2ccc(CC(=O)O)cc12
60 | 58 to 60 | CCCc1c(OCCOc2cccc(C(=O)OCC)c2)ccc(C(C)=O)c1O
61 | 232 to 234 | O=C(O)CCc1cc(-c2ccc(Cl)cc2)n(-c2nc3c(Cl)cccc3s2)n1
62 | > 275 | CN1C(=O)CCC(C)(C)c2cc(C(=O)Nc3ccc(C(=O)O)cc3)ccc21
63 | 65 to 68 | CC(=O)c1cccc2c1CCc1ccccc1C2=O
64 | 174 to 176 | COC(=O)Nc1ccc(-c2ncon2)cc1
65 | 198 to 200 | CCOC(=O)N1C(=O)C2(COc3cc4c(cc32)OCCO4)c2ccccc21 (stereo unspecified)
66 | 165 to 166 | O=C(COc1cc(C(=O)O)c(O)c2ccccc12)Nc1ccccc1
67 | 119 to 121 | Cc1nc2cccc(OCc3ccccc3)c2[nH]1
68 | 171 to 172 | NC(=S)NN=C(CNC(=O)c1ccccc1)c1ccccc1
69 | 129 to 131 | COc1ccc2ccccc2c1-c1cc2c(c(-c3ccccc3)c1P(=O)(c1ccccc1)c1ccccc1)COC2
70 | 130 to 132 | O=C(O)CC1CCCCC1Oc1ccc(C(=O)c2ccc(Cl)cc2)cc1 (stereo unspecified)
71 | 87 to 88 | CC(C)(C)OC(=O)N1C[C@@H](Br)C[C@@H]1C(=O)OCc1ccccc1
